As a reminder, the IC50 is the concentration that inhibits the measured activity by half. A higher IC50 goes with a need for much substance.

The results in this text go back to article PMC8729770, “In Vitro Evaluation of Antimicrobial Peptides from the Black Soldier Fly (Hermetia Illucens) against a Selection of Human Pathogens” (Microbiology Spectrum, 2022).

One assay concerns S. aureus ATCC 6538. In kind it is cell-based, Staphylococcus aureus. As to conditions: for IC50: MHB, 37°C, resazurin, 50% growth inhibition; for IC50 / MIC S. aureus ATCC 6538: 16 h; for MIC S. aureus ATCC 6538: determined visually; for MBC S. aureus ATCC 6538: wells without visual growth plated on MHA, ≥3 log reduction vs growth control. The procedure: (§1) To detect antimicrobial activity of the BSF AMPs, the peptide library underwent screening against a panel of microorganisms, consisting of S. aureus ATCC 6538, E. coli ATCC 8739, P. aeruginosa ATCC 9027, C. albicans B59630, and A. fumigatus B42928. Serial dilutions of the peptides were prepared from the DMSO stock solutions in sterile demineralized water in 96-well plates using an automated liquid-handling workstation (Beckman Coulter Biomek 3000) in end volumes of 10 μL. The final in-plate concentration of DMSO was <1%. Peptide concentrations ranged from 64 μM to 0.25 μM for the first evaluation, and from 32 μM to 0.016 μM for the independent repeat. As references, doxycycline (Sigma-Aldrich; S. aureus, E. coli, P. aeruginosa), flucytosine (Sigma-Aldrich; C. albicans), and econazole (Sigma-Aldrich; A. fumigatus) were used. Suspensions of a starting inoculum of 5 × 10^3 CFU/mL (E. coli, S. aureus, C. albicans, A. fumigatus) and 5 × 10^4 CFU/mL (P. aeruginosa) were prepared in MHB (bacterial species) or RPMI medium (fungal species) and 190 μL was added to the 96-well plates. Plates were incubated for 16 h (E. coli, S. aureus, P. aeruginosa), 24 h (C. albicans), or 48 h (A. fumigatus) at 37°C. After incubation, read-out of the antimicrobial activity was performed using a resazurin assay. Then, 20 μL of a 0.01% (wt/vol) resazurin (Sigma-Aldrich) solution was added to each well and plates were incubated for 15 min (S. aureus), 30 min (E. coli), 45 min (P. aeruginosa), 4 h (C. albicans), or 17 h (A. fumigatus) to allow resazurin reduction to take place. Fluorescence was read using a microplate reader (Telix) at λexcitation = 550 nm and λemission = 590. […] MIC values were determined visually. Medium in the wells with no visual growth was plated on MHA to detect the MBC, defined as ≥3 log reduction compared with the growth control.
In general terms: Alamar Blue is a resazurin reagent that responds to reducing activity.

For the next assay, the system named is A. fumigatus B42928. The format is cell-based, Aspergillus fumigatus. As to conditions: RPMI, 48 h, 37°C, resazurin. The procedure:
as §1

In assay [1] the test system is MRC5-SV2 cell line of human, embryonic lung fibroblasts. The assay can be described thus: Cytotoxicity screening of the peptide library. The format is cell-based. As to conditions: 72 h, 37°C, resazurin fluorescence. The procedure:
To determine early signs of peptide toxicity, the library was tested against the MRC5-SV2 cell line of human, embryonic lung fibroblasts (Sigma-Aldrich). Peptides were serially diluted in 96-well plates as described earlier at concentrations ranging from 64 μM to 0.25 μM for the first screening, and from 32 μM to 0.016 μM for the independent repeat. Tamoxifen (Sigma-Aldrich) was included as a reference compound. After preparation of the test plates, cell suspension (190 μL) of 1.5 × 10^5 cells/mL in complete minimum essential medium (Gibco) was added to the peptides. Plates were incubated for 72 h at 37°C in a 5% CO2 incubator (Binder). Afterwards, 50 μL of a 0.01% (wt/vol) resazurin (Sigma-Aldrich) solution was added to the wells to detect cell viability.

For another assay, the system named is C. albicans B59630. The format is cell-based, Candida albicans. As to conditions: RPMI, 24 h, 37°C, resazurin. The procedure:
as §1

A further assay relates to P. aeruginosa ATCC 9027. In kind it is cell-based, Pseudomonas aeruginosa. The conditions noted are these: 16 h; for IC50: MHB, 37°C, resazurin; for MIC P. aeruginosa ATCC 9027: determined visually. The procedure:
as §1

The test system of another assay is E. coli ATCC 8739. The format is cell-based, Escherichia coli. The conditions noted are these: 16 h; for IC50: MHB, 37°C, resazurin; for MIC E. coli ATCC 8739: determined visually. The procedure: as §1
[2] abbreviates: repeat 1, first screening 64-0.25 μM.
The mark [3] stands for this setting: repeat 2, independent repeat 32-0.016 μM.

Where “and” joins values, the source holds several entries; their conditions need not be identical. Identical values can stand only once. Like-named read-outs stand apart in the source and are kept apart here. Ends that are not written are not given here. Where only a bound is given, the exact number is not on record here.

Take “AMCDLLSGLNMGRSVCAMRCILKGHRGGWCDDQGVCNCRV [Hill-Def5, Defensin without disulfide bridges]”: the 50% inhibitory concentration (IC50) is over 64 µM in the assay with S. aureus ATCC 6538 (repeat 1, 64-0.25 μM); over 32 µM with S. aureus ATCC 6538 (repeat 2, 32-0.016 μM); over 64 µM with A. fumigatus B42928 (repeat 1, 64-0.25 μM); over 32 µM with A. fumigatus B42928 (repeat 2, 32-0.016 μM); over 64 µM in assay [1] (setting [2]); over 32 µM in assay [1] (setting [3]). Moreover, the IC50 is over 64 µM in the assay on C. albicans B59630 (repeat 1, 64-0.25 μM); over 32 µM with C. albicans B59630 (repeat 2, 32-0.016 μM); over 64 µM in the assay with P. aeruginosa ATCC 9027 (repeat 1, 64-0.25 μM); over 32 µM with P. aeruginosa ATCC 9027 (repeat 2, 32-0.016 μM); over 64 µM in the assay on E. coli ATCC 8739 (repeat 1, 64-0.25 μM); over 32 µM in the assay on E. coli ATCC 8739 (repeat 2, 32-0.016 μM). The “MIC S. aureus ATCC 6538” value was over 64.00 µM in the assay with S. aureus ATCC 6538 (repeat 1, 64-0.25 μM) and over 32.00 µM in the assay with S. aureus ATCC 6538 (repeat 2, 32-0.016 μM). For the same sequence, the “MIC P. aeruginosa ATCC 9027” value in the assay with P. aeruginosa ATCC 9027 (repeat 1, 64-0.25 μM) was over 64.00 µM; against P. aeruginosa ATCC 9027 (repeat 2, 32-0.016 μM), over 32.00 µM. The “MIC E. coli ATCC 8739” value was over 64.00 µM in the assay with E. coli ATCC 8739 (repeat 1, 64-0.25 μM) and over 32.00 µM in the assay on E. coli ATCC 8739 (repeat 2, 32-0.016 μM).

For the sequence “ATCDLLSPFKVGHAACAAHCIARGKRGGWCDKRAVCNCRK (also: bicyclic or more (positions not given here)) [Hill-Def2b, Defensin with disulfide bridges, counterpart of Hill-Def2a]”, in the assay with S. aureus ATCC 6538 (library screening, both repeats), the “concentration for 90% growth inhibition of S. aureus / activity against S. aureus” value is 32 µM and 64 µM. Besides, the IC50 in the assay on S. aureus ATCC 6538 (repeat 1, 64-0.25 μM) is 8.5 µM; in the assay with S. aureus ATCC 6538 (repeat 2, 32-0.016 μM) it was 13.5 µM; in the assay with A. fumigatus B42928 (repeat 1, 64-0.25 μM) it was over 64 µM; in the assay on A. fumigatus B42928 (repeat 2, 32-0.016 μM), over 32 µM; in assay [1] (setting [2]), over 64 µM; in assay [1] (setting [3]), over 32 µM. Also, the IC50 in the assay on C. albicans B59630 (repeat 1, 64-0.25 μM) was over 64 µM; in the assay on C. albicans B59630 (repeat 2, 32-0.016 μM) it was over 32 µM; in the assay on P. aeruginosa ATCC 9027 (repeat 1, 64-0.25 μM) it was over 64 µM; in the assay on P. aeruginosa ATCC 9027 (repeat 2, 32-0.016 μM), over 32 µM; in the assay with E. coli ATCC 8739 (repeat 1, 64-0.25 μM), over 64 µM; with E. coli ATCC 8739 (repeat 2, 32-0.016 μM) it was over 32 µM. The “MIC S. aureus ATCC 6538” value in the assay on S. aureus ATCC 6538 (repeat 1, 64-0.25 μM) is 64.00 µM; against S. aureus ATCC 6538 (repeat 2, 32-0.016 μM), > 32.00 µM and 32.00 µM. Further, the “MBC S. aureus ATCC 6538” value in the assay with S. aureus ATCC 6538 (repeat 1) and against S. aureus ATCC 6538 (repeat 2) was “static” throughout. The “MIC P. aeruginosa ATCC 9027” value was > 32.00 µM and >64.00 µM against P. aeruginosa ATCC 9027 (repeat 1, 64-0.25 μM); > 64.00 µM and >32.00 µM in the assay with P. aeruginosa ATCC 9027 (repeat 2, 32-0.016 μM). Besides, the “MIC E. coli ATCC 8739” value with E. coli ATCC 8739 (repeat 1, 64-0.25 μM) was over 32.00 µM; in the assay with E. coli ATCC 8739 (repeat 2, 32-0.016 μM), > 64.00 µM and 64.00 µM.

For “ATCTNWNCRTQCIARGKRGGYCVERNICKCTS [Hill-Def3, Defensin without disulfide bridges]”, the IC50 in the assay on S. aureus ATCC 6538 (repeat 1, 64-0.25 μM) was over 64 µM; in the assay with S. aureus ATCC 6538 (repeat 2, 32-0.016 μM), over 32 µM; in the assay on A. fumigatus B42928 (repeat 1, 64-0.25 μM), over 64 µM; in the assay on A. fumigatus B42928 (repeat 2, 32-0.016 μM), over 32 µM; in assay [1] (setting [2]), over 64 µM; in assay [1] (setting [3]), over 32 µM. Further, the IC50 in the assay with C. albicans B59630 (repeat 1, 64-0.25 μM) was over 64 µM; with C. albicans B59630 (repeat 2, 32-0.016 μM), over 32 µM; in the assay on P. aeruginosa ATCC 9027 (repeat 1, 64-0.25 μM) it was over 64 µM; in the assay on P. aeruginosa ATCC 9027 (repeat 2, 32-0.016 μM) it was over 3 µM; with E. coli ATCC 8739 (repeat 1, 64-0.25 μM) it was over 64 µM; with E. coli ATCC 8739 (repeat 2, 32-0.016 μM) it was over 32 µM. For the same sequence, the “MIC S. aureus ATCC 6538” value in the assay on S. aureus ATCC 6538 (repeat 1, 64-0.25 μM) was over 64.00 µM; against S. aureus ATCC 6538 (repeat 2, 32-0.016 μM), over 32.00 µM. The “MIC P. aeruginosa ATCC 9027” value against P. aeruginosa ATCC 9027 (repeat 1, 64-0.25 μM) was over 64.00 µM; against P. aeruginosa ATCC 9027 (repeat 2, 32-0.016 μM) it was over 32.00 µM. The “MIC E. coli ATCC 8739” value against E. coli ATCC 8739 (repeat 1, 64-0.25 μM) is over 64.00 µM; against E. coli ATCC 8739 (repeat 2, 32-0.016 μM), over 32.00 µM.
